Starred links: 1 amine or outer side, 2 acyl side, 3 side chain; linkers in the order of their positions; H or OH if unused. Positions of bridges follow the written chain, without caps; N, C: chain ends. Non-standard residues stand in square brackets, D forms with d. Residues, ends and D or L forms follow the SMILES beside them. *: point of attachment. hPhe(3-Cl-4-CF3) = N[C@@H](CCc1ccc(C(F)(F)F)c(Cl)c1)C(=O)O; hPhe(3-F,4-CF3) = N[C@@H](CCc1ccc(C(F)(F)F)c(F)c1)C(=O)O; hPhe(4-CF3) = N[C@@H](CCc1ccc(C(F)(F)F)cc1)C(=O)O; NEtPhe(4-Me) = CCN[C@@H](Cc1ccc(C)cc1)C(=O)O; NMePhe(4-Cl) = CN[C@@H](Cc1ccc(Cl)cc1)C(=O)O; NMePhe(2-Cl) = CN[C@@H](Cc1ccccc1Cl)C(=O)O; NMePhe(4-F) = CN[C@@H](Cc1ccc(F)cc1)C(=O)O; NMedβ3hAla = C[C@H](CC(=O)[*:2])N(C)[*:1]; Oic = O=C(O)[C@@H]1C[C@@H]2CCCC[C@@H]2N1; X22 = O=C([C@@H]1Cc2ccccc2N1[*:1])[*:2]; NMeGly(cPent) = CN[C@H](C(=O)O)C1CCCC1; NMeCha = CN[C@@H](CC1CCCCC1)C(=O)O; Hyp = O=C(O)[C@@H]1C[C@@H](O)CN1; NMeChg = CN[C@H](C(=O)O)C1CCCCC1; NMeF = CN[C@@H](Cc1ccccc1)C(=O)O; Cha = N[C@@H](CC1CCCCC1)C(=O)O; Gly(cPr) = N[C@H](C(=O)O)C1CC1; NMeD = CN[C@@H](CC(=O)O)C(=O)O; NMeL = CN[C@@H](CC(C)C)C(=O)O; NMeV = CN[C@H](C(=O)O)C(C)C; d(β3hA) = C[C@@H](N)CC(=O)O; Azetidin(1-yl) = C1CN(*)C1; NMeS = CN[C@@H](CO)C(=O)O; NMeA = CN[C@@H](C)C(=O)O; NMeAib = CNC(C)(C)C(=O)O; Piperidide = C1CCN(*)CC1; Pyrrolidide = C1CCN(*)C1; dNMeA = CN[C@H](C)C(=O)O; Ac5c = NC1(C(=O)O)CCCC1; Aze = O=C(O)[C@@H]1CCN1; Aib = CC(C)(N)C(=O)O; X47 = Fc1cncc(C*)c1; NEtG = CCNCC(=O)O; βAla = NCCC(=O)O; Sar = CNCC(=O)O
Molecular target: T1, Kras and SOS1 (biotin-tagged human Kras loaded with GDP, His-tagged human SOS1) (Homo sapiens, UniProt P01116, G12D)
T1 construct: made in house; host or cells: E. coli (stated for Kras only)
Test: Protein-protein interaction inhibition between Kras and SOS1 (KrasGl2D-SOS PPI) using AlphaScreen
Type: binding
Conditions: AlphaScreen; biotin-tagged human Kras loaded with GDP, His-tagged human SOS1; read-out: KRAS G12D-SOS PPI IC50
In short: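 AlphaScreen format: Ni donor beads capture His-SOS1, streptavidin acceptor beads capture biotinylated Kras (E. coli-expressed, GDP-loaded post-purification). Excite 680 nm, read 520-620 nm.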

T1 sequence (P01116 1-188 isoform P01116-2 G12D): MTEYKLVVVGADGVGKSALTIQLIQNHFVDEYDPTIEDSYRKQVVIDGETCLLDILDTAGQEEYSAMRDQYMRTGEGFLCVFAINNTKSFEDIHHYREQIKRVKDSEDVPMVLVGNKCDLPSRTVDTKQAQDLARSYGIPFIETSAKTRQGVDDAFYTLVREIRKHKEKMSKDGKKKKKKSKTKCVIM

## CC[C@H](C)[C@@H]1NC(=O)[C@H](CC(C)C)N(C)C(=O)C[C@@H](C)NC(=O)[C@H](C(C)C)N(C)C(=O)C2(CCCC2)NC(=O)[C@@H]2CCCN2C(=O)[C@H](CCc2ccc(C(F)(F)F)c(Cl)c2)NC(=O)CN(C)C(=O)[C@H](CC2CCCCC2)N(C)C(=O)CN(CC)C(=O)CN(C)C1=O [Compound 504] (cyclo([Ac5c][NMeV][d(β3hA)][NMeL]I[Sar][NEtG][NMeCha][Sar][hPhe(3-Cl-4-CF3)]P))
  IC50: 53 nM

## CC[C@H](C)[C@@H]1NC(=O)[C@H](C)N(C)C(=O)C[C@@H](C(=O)N2CCCCC2)N(C)C(=O)[C@H](C(C)C)N(C)C(=O)C(C)(C)N(C)C(=O)[C@@H]2CCCN2C(=O)[C@H](CCc2ccc(C(F)(F)F)c(Cl)c2)NC(=O)CN(C)C(=O)[C@H](CC2CCCCC2)N(C)C(=O)CN(C)C(=O)CN(C)C1=O [Compound 507] ([NMeA]I[Sar][Sar][NMeCha][Sar][hPhe(3-Cl-4-CF3)]P[NMeAib][NMeV][NMeD]-Piperidide; lactam N-11)
  IC50: 0.48 nM

## CC[C@H](C)[C@@H]1NC(=O)[C@H](CC(C)C)N(C)C(=O)C[C@@H](C(=O)N2CCCC2)NC(=O)[C@H](C(C)C)N(C)C(=O)C2(CCCC2)NC(=O)[C@@H]2CCCN2C(=O)[C@H](CCc2ccc(C(F)(F)F)c(Cl)c2)NC(=O)CN(C)C(=O)[C@H](CC2CCCCC2)N(C)C(=O)CN(C)C(=O)CN(C)C1=O [Compound 508] ([NMeL]I[Sar][Sar][NMeCha][Sar][hPhe(3-Cl-4-CF3)]P[Ac5c][NMeV]D-Pyrrolidide; lactam N-11)
  IC50: 12 nM

## CC[C@H](C)[C@@H]1NC(=O)[C@H](C)N(C)C(=O)C[C@@H](C(=O)N2CCCC2)NC(=O)[C@H](CC(C)C)N(C)C(=O)[C@H](Cc2ccccc2)N(C)C(=O)[C@H](COCc2cncc(F)c2)NC(=O)[C@H](CCc2ccc(C(F)(F)F)cc2)NC(=O)CN(C)C(=O)[C@H](Cc2ccc(Cl)cc2)N(C)C(=O)CN(C)C(=O)CN(C)C1=O [Compound 513] ([NMeA]I[Sar][Sar][NMePhe(4-Cl)][Sar][hPhe(4-CF3)]S(X47)[NMeF][NMeL]D-Pyrrolidide; lactam N-11)
  IC50: 46 nM

## CC[C@H](C)[C@@H]1NC(=O)[C@H](CC(C)C)N(C)C(=O)C[C@@H](C(=O)N2CCCCC2)N(C)C(=O)[C@H](C2CCCCC2)N(C)C(=O)C2(CCCC2)NC(=O)[C@@H]2Cc3ccccc3N2C(=O)[C@H](CCc2ccc(C(F)(F)F)c(Cl)c2)NC(=O)CN(C)C(=O)[C@H](CC2CCCCC2)N(C)C(=O)CN(C)C(=O)CN(C)C1=O [Compound 514] ([NMeL]I[Sar][Sar][NMeCha][Sar][hPhe(3-Cl-4-CF3)][X22][Ac5c][NMeChg][NMeD]-Piperidide; lactam N-11)
  IC50: 14 nM

## CC[C@H](C)[C@@H]1NC(=O)[C@H](CC(C)C)N(C)C(=O)C[C@@H](C(=O)N2CCC2)N(C)C(=O)[C@H](C2CCCC2)N(C)C(=O)C2(CCCC2)NC(=O)[C@@H]2CCCN2C(=O)[C@H](CCc2ccc(C(F)(F)F)c(Cl)c2)NC(=O)CN(C)C(=O)[C@H](CC2CCCCC2)N(C)C(=O)[C@@H]2CCN2C(=O)[C@H](C)N(C)C1=O [Compound 515] ([NMeL]I[NMeA][Aze][NMeCha][Sar][hPhe(3-Cl-4-CF3)]P[Ac5c][NMeGly(cPent)][NMeD]-{Azetidin(1-yl)}; lactam N-11)
  IC50: 0.55 nM

## CC[C@H](C)[C@@H]1NC(=O)[C@H](C)N(C)C(=O)C[C@@H](C)NC(=O)[C@H](C(C)C)N(C)C(=O)C2(CCCC2)NC(=O)[C@@H]2CCCN2C(=O)[C@H](CCc2ccc(C(F)(F)F)c(Cl)c2)NC(=O)[C@@H](C)N(C)C(=O)[C@H](CC2CCCCC2)N(C)C(=O)[C@@H]2CCCN2C(=O)CN(C)C1=O [Compound 516] (cyclo([Ac5c][NMeV][d(β3hA)][NMeA]I[Sar]P[NMeCha][dNMeA][hPhe(3-Cl-4-CF3)]P))
  IC50: 62 nM

## CC[C@H](C)[C@@H]1NC(=O)[C@H](C)N(C)C(=O)C[C@@H](C(=O)N2CCCC2)NC(=O)[C@H](CC(C)C)N(C)C(=O)[C@H](COCc2cncc(F)c2)N(C)C(=O)[C@H](CC(C)C)NC(=O)[C@H](CCc2ccc(C(F)(F)F)cc2)NC(=O)CN(C)C(=O)[C@H](Cc2ccc(Cl)cc2)N(C)C(=O)CN(C)C(=O)CN(C)C1=O [Compound 517] ([NMeA]I[Sar][Sar][NMePhe(4-Cl)][Sar][hPhe(4-CF3)]L[NMeS](X47)[NMeL]D-Pyrrolidide; lactam N-11)
  IC50: 28 nM

## CC[C@H](C)[C@@H]1NC(=O)[C@H](C)N(C)C(=O)C[C@@H](C)NC(=O)[C@H](CC(C)C)N(C)C(=O)C(C)(C)NC(=O)[C@@H]2C[C@@H]3CCCC[C@@H]3N2C(=O)[C@H](CCc2ccc(C(F)(F)F)cc2)NC(=O)CN(C)C(=O)[C@H](Cc2ccc(Cl)cc2)N(C)C(=O)CN(C)C(=O)CN(C)C1=O [Compound 521] (cyclo([Aib][NMeL][d(β3hA)][NMeA]I[Sar][Sar][NMePhe(4-Cl)][Sar][hPhe(4-CF3)][Oic]))
  IC50: 71 nM

## CC[C@H](C)[C@@H]1NC(=O)[C@H](CC(C)C)N(C)C(=O)C[C@@H](C(=O)N2CCCCC2)N(C)C(=O)[C@H](C(C)C)N(C)C(=O)C(C)(C)NC(=O)[C@@H]2CCCN2C(=O)[C@H](CCc2ccc(C(F)(F)F)c(F)c2)NC(=O)CN(C)C(=O)[C@H](CC2CCCCC2)N(C)C(=O)CN(C)C(=O)CN(C)C1=O [Compound 522] ([NMeL]I[Sar][Sar][NMeCha][Sar][hPhe(3-F,4-CF3)]P[Aib][NMeV][NMeD]-Piperidide; lactam N-11)
  IC50: 5.3 nM

## CCO[C@@H]1C[C@H]2C(=O)NC3(CCCC3)C(=O)N(C)[C@@H](C3CCCC3)C(=O)N(C)[C@H](C)CC(=O)N(C)[C@@H](CC(C)C)C(=O)N[C@@H]([C@@H](C)CC)C(=O)N[C@@H](C)C(=O)N3CC[C@H]3C(=O)N(CC)[C@@H](Cc3ccc(C)cc3)C(=O)N(C)CC(=O)N[C@@H](CCc3ccc(C(F)(F)F)c(Cl)c3)C(=O)N2C1 [Compound 525] (cyclo(A[Aze][NEtPhe(4-Me)][Sar][hPhe(3-Cl-4-CF3)][Hyp](Et)[Ac5c][NMeGly(cPent)][NMedβ3hAla][NMeL]I))
  IC50: 2.3 nM

## CC[C@H](C)[C@@H]1NC(=O)[C@H](CC(C)C)N(C)C(=O)C[C@@H](C(=O)N2CCCCC2)N(C)C(=O)[C@H](C2CCCCC2)N(C)C(=O)C2(CCCC2)NC(=O)[C@H](Cc2ccccc2)N(C)C(=O)[C@H](CCc2ccc(C(F)(F)F)c(Cl)c2)NC(=O)CN(C)C(=O)[C@H](CC2CCCCC2)N(C)C(=O)[C@@H]2CCN2C(=O)CN(C)C1=O [Compound 527] ([NMeL]I[Sar][Aze][NMeCha][Sar][hPhe(3-Cl-4-CF3)][NMeF][Ac5c][NMeChg][NMeD]-Piperidide; lactam N-11)
  IC50: 38 nM

## CC[C@H](C)[C@@H]1NC(=O)CCNC(=O)[C@H](Cc2ccc(F)cc2)N(C)C(=O)[C@H](C2CCCCC2)N(C)C(=O)C2(CCCC2)NC(=O)[C@@H]2CCCN2C(=O)[C@H](CCc2ccc(C(F)(F)F)c(Cl)c2)NC(=O)CN(C)C(=O)[C@H](CC2CCCCC2)N(C)C(=O)CN(C)C(=O)CN(C)C1=O [Compound 528] (cyclo([Ac5c][NMeChg][NMePhe(4-F)][βAla]I[Sar][Sar][NMeCha][Sar][hPhe(3-Cl-4-CF3)]P))
  IC50: 20 nM

## CC(C)C[C@H]1C(=O)N[C@@H](C2CC2)C(=O)N(C)CC(=O)N(C)CC(=O)N(C)[C@@H](CC2CCCCC2)C(=O)N(C)CC(=O)N[C@@H](CCc2ccc(C(F)(F)F)c(Cl)c2)C(=O)N2CCC[C@H]2C(=O)NC2(CCCC2)C(=O)N(C)[C@@H](C(C)C)C(=O)N(C)[C@H](C(=O)N2CCCCC2)CC(=O)N1C [Compound 533] ([NMeL][Gly(cPr)][Sar][Sar][NMeCha][Sar][hPhe(3-Cl-4-CF3)]P[Ac5c][NMeV][NMeD]-Piperidide; lactam N-11)
  IC50: 8.5 nM

## CC[C@H](C)[C@@H]1NC(=O)[C@H](C)N(C)C(=O)C[C@@H](C(=O)N2CCCC2)NC(=O)[C@H](CC(C)C)N(C)C(=O)[C@H](CC2CCCCC2)N(C)C(=O)[C@H](CC(C)C)NC(=O)[C@H](CCc2ccc(C(F)(F)F)cc2)NC(=O)CN(C)C(=O)[C@H](Cc2ccc(Cl)cc2)N(C)C(=O)CN(C)C(=O)CN(C)C1=O [Compound 536] ([NMeA]I[Sar][Sar][NMePhe(4-Cl)][Sar][hPhe(4-CF3)]L[NMeCha][NMeL]D-Pyrrolidide; lactam N-11)
  IC50: 230 nM

## CC(C)C[C@H]1C(=O)N[C@@H](CC2CCCCC2)C(=O)N(C)CC(=O)N(C)CC(=O)N(C)[C@@H](CC2CCCCC2)C(=O)N(C)CC(=O)N[C@@H](CCc2ccc(C(F)(F)F)c(Cl)c2)C(=O)N2CCC[C@H]2C(=O)NC2(CCCC2)C(=O)N(C)[C@@H](C(C)C)C(=O)N[C@H](C)CC(=O)N1C [Compound 537] (cyclo([Ac5c][NMeV][d(β3hA)][NMeL][Cha][Sar][Sar][NMeCha][Sar][hPhe(3-Cl-4-CF3)]P))
  IC50: 82 nM

## CC[C@H](C)[C@@H]1NC(=O)[C@H](C(C)C)N(C)C(=O)C[C@@H](C)NC(=O)[C@H](CC(C)C)N(C)C(=O)C2(CCCC2)NC(=O)[C@H](CC(C)C)N(C)C(=O)[C@H](CCc2ccc(C(F)(F)F)cc2)NC(=O)CN(C)C(=O)[C@H](Cc2ccc(Cl)cc2)N(C)C(=O)CN(C)C(=O)[C@@H]2CCN2C1=O [Compound 538] (cyclo([Ac5c][NMeL][d(β3hA)][NMeV]I[Aze][Sar][NMePhe(4-Cl)][Sar][hPhe(4-CF3)][NMeL]))
  IC50: 110 nM

## CC[C@H](C)[C@@H]1NC(=O)[C@H](C)N(C)C(=O)C[C@@H](C)NC(=O)[C@H](C2CCCC2)N(C)C(=O)C2(CCCC2)NC(=O)[C@@H]2CCCN2C(=O)[C@H](CCc2ccc(C(F)(F)F)c(Cl)c2)NC(=O)[C@@H](C)N(C)C(=O)[C@H](Cc2ccccc2Cl)N(C)C(=O)CN(C)C(=O)CN(C)C1=O [Compound 539] (cyclo([Ac5c][NMeGly(cPent)][d(β3hA)][NMeA]I[Sar][Sar][NMePhe(2-Cl)][dNMeA][hPhe(3-Cl-4-CF3)]P))
  IC50: 190 nM

— patent US12371454B2, “Cyclic peptide compound having Kras inhibitory action” (priority 2019, dated 2025)
